Test system: patients after acute myocardial infarction
Assay: Life quality, Seattle Angina Questionnaire (SAQ), same clinical trial
Type: in vivo, human
Details: 9 months after treatment
Description: 3508 patients who were in accordance with the diagnostic standards of AMI for 28 days to 2 years and differentiated as Qi deficiency and blood stagnation syndrome by TCM were studied. 0.5 g Chinese medicine composition prepared by the method of EXAMPLE 1 (Coded as QSYQ) was administrated half an hour after meal, 3 times per day.
There were 19 questions in the Seattle angina questionnaire (SAQ), including 5 parts: physical limitation (PL), anginal stability (AS), anginal frequency (AF), treatment satisfaction (TS) and disease perception (DP). After being given necessary explanation by doctors, the questions were answered independently by patients.
They included the overall survival time, angina pectoris score, TCM symptom score and life quality score, where angina pectoris score, TCM symptom score and life quality score were evaluated at randomization, in 1st, 3rd, 6th, 9th, 12th month after treatment and 18th month after follow-up.
All evaluation results of SAQ were described during the period of observation, and Wilcoxon rank sum test was used for inter-group comparison.
The evaluation results in the SAQ were depicted in different observations, and inter-group comparison was tested by Wilcoxon Rank-sum test.

CC(=O)Oc1ccccc1C(=O)O [Control group, aspirine]
SAQ Question 1-4: Not limited, number of patients (FAS): 797
SAQ Question 1-4: Not limited, percent of patients (FAS): (45.70%)
SAQ Question 1-4: Other reasons, number of patients (FAS): 10
SAQ Question 1-4: Other reasons, percent of patients (FAS): (0.57%)
SAQ Question 1-4: Severely limited, number of patients (FAS): 19
SAQ Question 1-4: Severely limited, percent of patients (FAS): (1.09%)
SAQ Question 1-4: Slightly limited, number of patients (FAS): 569
SAQ Question 1-4: Slightly limited, percent of patients (FAS): (32.63%)
SAQ Question 1-5: Mildly limited, number of patients (FAS): 284
SAQ Question 1-5: Mildly limited, percent of patients (FAS): (16.29%)
SAQ Question 1-5: Moderately limited, number of patients (FAS): 103
SAQ Question 1-5: Moderately limited, percent of patients (FAS): (5.91%)
SAQ Question 1-5: Not limited, number of patients (FAS): 825
SAQ Question 1-5: Not limited, percent of patients (FAS): (47.33%)
SAQ Question 1-5: Other reasons, number of patients (FAS): 11
SAQ Question 1-5: Other reasons, percent of patients (FAS): (0.63%)
SAQ Question 1-5: Severely limited, number of patients (FAS): 17
SAQ Question 1-5: Severely limited, percent of patients (FAS): (0.98%)
SAQ Question 1-5: Slightly limited, number of patients (FAS): 503
SAQ Question 1-5: Slightly limited, percent of patients (FAS): (28.86%)
SAQ Question 1-9: Mildly limited, % of cases (FAS): (19.38%)
SAQ Question 1-9: Mildly limited, cases (FAS): 332
SAQ Question 1-9: Moderately limited, % of cases (FAS): (20.61%)
SAQ Question 1-9: Moderately limited, cases (FAS): 353
SAQ Question 1-9: Not limited, % of cases (FAS): (3.91%)
SAQ Question 1-9: Not limited, cases (FAS): 67
SAQ Question 1-9: Other reasons, % of cases (FAS): (5.60%)
SAQ Question 1-9: Other reasons, cases (FAS): 96
SAQ Question 1-9: Severely limited, % of cases (FAS): (33.39%)
SAQ Question 1-9: Severely limited, cases (FAS): 572
SAQ Question 1-9: Slightly limited, % of cases (FAS): (17.10%)
SAQ Question 1-9: Slightly limited, cases (FAS): 293
SAQ 2nd question: Clearly increased, % of cases (PP): (0.63%)
SAQ 2nd question: Clearly increased, cases (PP): 9
SAQ 2nd question: Clearly reduced, % of cases (PP): (26.01%)
SAQ 2nd question: Clearly reduced, cases (PP): 373
SAQ 2nd question: Same, % of cases (PP): (34.94%)
SAQ 2nd question: Same, cases (PP): 501
SAQ 2nd question: Slightly increased, % of cases (PP): (3.21%)
SAQ 2nd question: Slightly increased, cases (PP): 46
SAQ 2nd question: Slightly reduced, % of cases (PP): (35.22%)
SAQ 2nd question: Slightly reduced, cases (PP): 505
SAQ 3rd question: 1-2 times per week, % of cases (PP): (35.22%)
SAQ 3rd question: 1-2 times per week, cases (PP): 505
SAQ 3rd question: 1-3 times per day, % of cases (PP): (3.21%)
SAQ 3rd question: 1-3 times per day, cases (PP): 46
SAQ 3rd question: <1 time per week, % of cases (PP): (26.01%)
SAQ 3rd question: <1 time per week, cases (PP): 373
SAQ 3rd question: No onset, % of cases (PP): (0.00%)
SAQ 3rd question: No onset, cases (PP): 0
SAQ 3rd question: ≧3 times per week, % of cases (PP): (34.94%)
SAQ 3rd question: ≧3 times per week, cases (PP): 501
SAQ 3rd question: ≧4 times per day, % of cases (PP): (0.63%)
SAQ 3rd question: ≧4 times per day, cases (PP): 9
SAQ Question 1-3: Mildly limited, number of patients (PP): 37
SAQ Question 1-3: Mildly limited, percent of patients (PP): (2.57%)
SAQ Question 1-3: Moderately limited, number of patients (PP): 10
SAQ Question 1-3: Moderately limited, percent of patients (PP): (0.70%)
SAQ Question 1-3: Not limited, number of patients (PP): 1187
SAQ Question 1-3: Not limited, percent of patients (PP): (82.60%)
SAQ Question 1-3: Other reasons, number of patients (PP): 6
SAQ Question 1-3: Other reasons, percent of patients (PP): (0.42%)
SAQ Question 1-3: Severely limited, number of patients (PP): 1
SAQ Question 1-3: Severely limited, percent of patients (PP): (0.07%)
SAQ Question 1-3: Slightly limited, number of patients (PP): 196
SAQ Question 1-3: Slightly limited, percent of patients (PP): (13.64%)
SAQ Question 1-4: Mildly limited, number of patients (PP): 208
SAQ Question 1-4: Mildly limited, percent of patients (PP): (14.49%)
SAQ Question 1-4: Moderately limited, number of patients (PP): 63
SAQ Question 1-4: Moderately limited, percent of patients (PP): (4.39%)
SAQ Question 1-4: Not limited, number of patients (PP): 673
SAQ Question 1-4: Not limited, percent of patients (PP): (46.90%)
SAQ Question 1-4: Other reasons, number of patients (PP): 10
SAQ Question 1-4: Other reasons, percent of patients (PP): (0.70%)
SAQ Question 1-4: Severely limited, number of patients (PP): 9
SAQ Question 1-4: Severely limited, percent of patients (PP): (0.63%)
SAQ Question 1-4: Slightly limited, number of patients (PP): 472

From patent US9211310B2, “Use of a Chinese medicine composition in preparing medicaments for treating secondary prevention of myocardial infarction” (TASLY PHARMACEUTICAL GROUP CO., LTD, priority 2010, dated 2015)
